In patent US6150393A (priority 1999, dated 2000):

Legend:
[1] = tested on: human mutated 5HT2A receptor, AP-3; test: Receptor-mediated inositol phosphate (IP3) accumulation, AP-3; assay type: cell-based
Description: On day one, 1×10^7 293 cells per 150 mm plate were plated out. On day two, two reaction tubes were prepared (the proportions to follow for each tube are per plate): tube A was prepared by mixing 20 μg DNA (e.g., pCMV vector; pCMV vector AP-1 cDNA, etc.) in 1.2 ml serum free DMEM (Irvine Scientific, Irvine, Calif.); tube B was prepared by mixing 120 μl lipofectamine (Gibco BRL) in 1.2 ml serum free DMEM. Tubes A and B were then admixed by inversions (several times), followed by incubation at room temperature for 30-45 min. The admixture is referred to as the "transfection mixture". Plated 293 cells were washed with 1×PBS, followed by addition of 10 ml serum free DMEM. 2.4 ml of the transfection mixture was then added to the cells, followed by incubation for 4 hrs at 37° C./5% CO2. On day 3, cells were trypsinized and counted, followed by plating of 1×10^6 cells/well (poly D-lysine treated 12-well plates). Cells were permitted to adhere to the wells, followed by one wash with 1×PBS. Thereafter, 0.5 μCi ^3 H-inositol in 1 ml inositol-free DMEM was added per well. Protocol B.
On day 4, the cells were washed with 0.5 ml PBS and then 0.45 ml of assay medium was added containing inositol-free/serum free media, 10 μM pargyline, 10 mM lithium chloride, or 0.4 ml of assay medium and 50 ul of 10× ketanserin (ket) to a final concentration of 10 μM. The cells were then incubated for 30 minutes at 37° C. Then the cells were washed with 0.5 ml PBS and 200 ul of fresh/ice cold stop solution (1M KOH; 18 mM Na-borate; 3.8 mM EDTA) was added/well. The solution was kept on ice for 5-10 minutes or until the cells were lysed and then neutralized by 200 μl of fresh/ice cold neutralization sol. (7.5% HCL). The lysate was then transferred into 1.5 ml microcentrifuge tubes and 1 ml of chloroform/methanol (1:2) was added/tube. The solution was vortexed for 15 seconds and the upper phase was applied to a Biorad AG1-X8 anion exchange resin (100-200 mesh). The resin was washed with water and 0.9 ml of the upper phase was loaded onto the column. The column was washed with 10 mls of 5 mM myo-inositol and 10 ml of 5 mM Na-borate/60 mM Na-formate. The inositol trisphosphates were eluted into scintillation vials containing 10 ml of scintillation cocktail with 2 ml of 0.1 M formic acid/1 M ammonium formate. The columns were regenerated by washing with 10 ml of 0.1 M formic acid/3M ammonium formate and rinsed twice with dd H2 O and stored at room temperature in water.
Candidate compound identified in the assays of Examples 9a-9c were then evaluated for inositol phosphate accumulation, following the protocol of Example 5 ([…] expressing human mutated 5HT2A receptor, AP-3), modified as follows: tube A was prepared by mixing 16 μg DNA (e.g., pCMV vector; pCMV vector AP-1 cDNA, etc.) in 1.0 ml serum free DMEM (Irvine Scientific, Irvine, Calif.); tube B was prepared by mixing 60 μl lipofectamine (Gibco BRL) in 1.0 ml serum free DMEM. Tubes A and B were then admixed by inversions (several times), followed by incubation at room temperature for 30 min. The admixture is referred to as the "transfection mixture". Plated 293 cells were washed with 10 ml Serum Free DMEM, followed by addition of 11 ml Serum Free DMEM. 2.0 ml of the transfection mixture was then added to the cells, followed by incubation for 5 hrs at 37° C./5% CO2. On day 3, cells were trypsinized and counted, followed by plating of 1×10^6 cells/well (12-well plates). Cells were permitted to adhere to the wells for 8 hrs, followed by one wash with 1×PBS. Thereafter, 0.5 μCi ^3 H-inositol in 1 ml inositol-free DMEM was added per well.
On day 4, the cells were washed with 1.5 ml PBS and then 0.9 ml of assay medium was added containing inositol-free/serum free media, 10 μM pargyline, 10 mM lithium chloride, for 5 min in 37° C./5% CO2 followed by 100 μl addition of candidate compound diluted in the same material. The cells were then incubated for 120 minutes at 37° C. […]

[2] = tested on: 5HT2 receptors; test: DOI locomotor activity test in rats (DOI inhibition study), intraperitoneal test compound; assay type: in vivo, rat (male Sprague-Dawley); conditions: i.p. 30 min before DOI (0.3 mg/kg s.c.)
Description: FIG. 3 provides a graphic summary of dose-response results from in vivo analysis of compound 116082 in a 1-(2,5-dimethoxy-4-iodophenyl)-2-aminopropane ("DOI") inhibition study (fine movement; ambulation; and animal rearing outcome measures). 116082 was administered 30 min prior to DOI. Animals were placed in locomotor activity cages 10 min after DOI administration and activity was measured for 10 min. Results are presented as total activity counts over the 10 min of exposure to the locomotor activity apparatus.
FIG. 4 provides a graphic summary of dose-response results from in vivo analysis of compound 116081 in a DOI inhibition study (fine movement; ambulation; and animal rearing outcome measures). 116081 was administered 30 min prior to DOI. Animals were placed in locomotor activity cages 10 min after DOI administration and activity was measured for 10 min. Results are presented as total activity counts over the 10 min of exposure to the locomotor activity apparatus.
Assessment of 5-HT2 receptor antagonism in vivo was made by using the DOI locomotor activity test in rats as described by Krebs-Thomson (Psychopharmacology, 140:69-74, 1998).
Motor function was assessed by using automated locomotor activity cages. The rats were placed in a standard rodent cage surrounded by photocell beams, which allow for automated recording of motor activity. […]

[3] = Bar catalepsy test in rats (extrapyramidal side effect analysis); assay type: in vivo, rat (male Sprague-Dawley); conditions: same dosing parameters and protocol; n=10 per dose; data not shown
[4] = tested on: human 5HT2A receptor compared with human 5HT2C receptor; test: Selectivity for 5HT2A over 5HT2C receptor (as measured by IC50 values); assay type: binding

Cn1cc(Br)c(-c2cccc(NC(=O)Nc3ccc(Cl)cc3)c2)n1 [Compound 116081, N-[3-(4-bromo-1-methylpyrazol-3-yl)phenyl][(4-chlorophenyl)amino]carboxamide]
IP3 % of Control ([1]; 10 μM test compound, triplicate, control without test compound): 10% | profile in in vitro functional assays ([1]; in vitro functional assays): selective 5HT2A inverse agonist properties | reversal of DOI-induced motor dysfunction [2]: beneficially reverses DOI-induced motor dysfunction | cataleptic response [3]: did not produce a cataleptic response | selectivity preference for the 5HT2A receptor compared with the 5HT2C receptor [4]: 100 fold
